Results taken from PubChem BioAssay (NCI).
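Tested at 5 concentrations; 48 h exposure; 96-well plates; endpoints linearly interpolated, else capped at highest concentration. GI50 marks 50% less growth. Definition used: TGI = concentration required for complete inhibition of growth.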

What was measured:
Assay in all cases: DTP human tumour cell line panel, 48 h
SN12C renal = test system: SN12C renal
A549 NSCLC = test system: A549 NSCLC
786-0 renal = test system: 786-0 renal
EKVX NSCLC = test system: EKVX NSCLC
RPMI-8226 leukemia = test system: RPMI-8226 leukemia
NCI-H226 lung = test system: NCI-H226 lung
SK-MEL-2 melanoma = test system: SK-MEL-2 melanoma
MDA-MB-435 = test system: MDA-MB-435
K-562 leukemia = test system: K-562 leukemia
HOP-62 NSCLC = test system: HOP-62 NSCLC
HOP-92 NSCLC = test system: HOP-92 NSCLC

| Compound | TGI (SN12C renal) [µM] | TGI (A549 NSCLC) [µM] | TGI (786-0 renal) [µM] | TGI (EKVX NSCLC) [µM] | TGI (RPMI-8226 leukemia) [µM] | TGI (NCI-H226 lung) [µM] | TGI (SK-MEL-2 melanoma) [µM] | TGI (MDA-MB-435) [µM] | TGI (K-562 leukemia) [µM] | TGI (HOP-62 NSCLC) [µM] | TGI (HOP-92 NSCLC) [µM] | GI50 (SN12C renal) [µM] | GI50 (EKVX NSCLC) [µM] | GI50 (RPMI-8226 leukemia) [µM] | GI50 (NCI-H226 lung) [µM] | GI50 (SK-MEL-2 melanoma) [µM] | GI50 (MDA-MB-435) [µM] | GI50 (K-562 leukemia) [µM] | GI50 (HOP-92 NSCLC) [µM] |
| --- | --- | --- | --- | --- | --- | --- | --- | --- | --- | --- | --- | --- | --- | --- | --- | --- | --- | --- | --- |
| N#Cc1sc2c(c1OC(=O)c1ccco1)c(=O)n(-c1ccccc1)c(=S)n2-c1ccccc1 | > 100 | > 100 | > 100 | > 100 | 59.3 | > 100 | 84.2 | 84.4 | 96 | > 100 |  |  |  |  |  |  |  |  |  |
| C[Si](C)(C)OC1(C#N)c2ccccc2CCCC12CCCC2 (centres undefined) | > 100 | > 100 | > 100 | > 100 | 51.5 | > 100 | 45.7 | > 100 | > 100 | > 100 | 89.9 |  |  |  |  |  |  |  |  |
| O=C(O)C(Cc1ccccc1)Cc1ccccc1 | > 100 | > 100 | > 100 | > 100 | > 100 | > 100 | > 100 | > 100 | > 100 | > 100 |  |  |  |  |  |  |  |  |  |
| N#Cc1c(/C=C/c2ccccc2)c2c([nH]c1=S)CCCCC2 | > 100 | > 100 | > 100 | > 100 | > 100 | > 100 | > 100 | > 100 | > 100 | > 100 | > 100 |  |  |  |  |  |  |  |  |
| C=C(C)C1(Sc2ccc(OC)cc2)CC1 | 35.4 | > 100 | > 100 | > 100 | > 100 | 54.7 | 56.5 | 44 | > 100 | > 100 |  |  |  |  |  |  |  |  |  |
| CCC[N+](C)(C)CCCNC(=O)c1c(O)c2ccccc2[nH]c1=O | > 100 | > 100 | > 100 | > 100 | > 100 | > 100 | > 100 | > 100 | > 100 | > 100 | > 100 |  |  |  |  |  |  |  |  |
| N=C(N)SCc1nc(-c2ccc(Cl)cc2)no1 | 37.5 | > 100 | 29.3 | 89.4 | 26.8 | > 100 | 41.7 | 28.4 | 41.9 | > 100 | 77.6 |  |  |  |  |  |  |  |  |
| N=C1C=CC(=C(c2ccc(N)cc2)c2ccc(N)cc2)C=C1 | 7.37 | 32.1 | 12.9 | 51.4 | 18.4 | 18.2 | 10.4 | 19.7 | 27.1 | 16.8 | 12.7 |  |  |  |  |  |  |  |  |
| O=C(CSc1nc2ccc(I)cc2c(=O)n1Cc1ccccc1)Nc1ccccc1 | > 100 | > 100 | 23.9 | 11.6 | > 100 | 44.5 | 43.3 | > 100 | > 100 | 26.7 | 75 |  |  |  |  |  |  |  |  |
| CC1CN(c2cc3c(cc2F)c(=O)c(C(=O)O)cn3-c2ccc(N3CCN(C)CC3)cn2)CC(C)N1 (centres undefined) | > 100 | > 100 | > 100 | > 100 | > 100 | > 100 |  | > 100 | > 100 | > 100 | > 100 |  |  |  |  |  |  |  |  |
| O=C1CCCC1CC(CN1CCOCC1)Sc1nnnn1-c1ccccc1 (centres undefined) | > 100 | > 100 | > 100 | > 100 | > 100 | > 100 | > 100 | > 100 | > 100 | > 100 | > 100 |  |  |  |  |  |  |  |  |
| NS(=O)(=O)c1nnc(NS(=O)(=O)c2cccc3cccnc23)s1 | > 100 | > 100 | > 100 | > 100 | > 100 | > 100 | > 100 | > 100 | > 100 | > 100 | > 100 |  |  |  |  |  |  |  |  |
| O=C1C(c2ccccc2)=C(c2ccccc2)C1(Cl)Cl | 11.5 | 27.4 | 7.36 | 21.7 | 5.53 | 10.1 | 8.7 | 6.7 | 4.13 | 41.9 | 7.14 |  |  |  |  |  |  |  |  |
| C1=CC2C(C3CN(c4ccccc4)N=C13)C1C3C4C=CC21C=CC43 (centres undefined) | > 100 | > 100 | > 100 | > 100 | > 100 | > 100 | > 100 | > 100 | > 100 | > 100 | > 100 |  |  |  |  |  |  |  |  |
| [N-]=[N+]=C(C(=O)CN1CCCC1=O)S(=O)(=O)c1ccccc1 | > 100 | > 100 | > 100 | > 100 | > 100 | > 100 | > 100 | > 100 | > 100 | > 100 |  |  |  |  |  |  |  |  |  |
| NS(=O)(=O)c1ccc(-c2ccc([As](=O)(O)O)cc2)cc1 | > 100 | > 100 | > 100 | > 100 | > 100 | > 100 | > 100 | > 100 | > 100 | > 100 | > 100 |  |  |  |  |  |  |  |  |

| Compound | TGI (SN12C renal) [µM] | TGI (A549 NSCLC) [µM] | TGI (786-0 renal) [µM] | TGI (EKVX NSCLC) [µM] | TGI (RPMI-8226 leukemia) [µM] | TGI (NCI-H226 lung) [µM] | TGI (SK-MEL-2 melanoma) [µM] | TGI (MDA-MB-435) [µM] | TGI (K-562 leukemia) [µM] | TGI (HOP-62 NSCLC) [µM] | TGI (HOP-92 NSCLC) [µM] | GI50 (SN12C renal) [µM] | GI50 (EKVX NSCLC) [µM] | GI50 (RPMI-8226 leukemia) [µM] | GI50 (NCI-H226 lung) [µM] | GI50 (SK-MEL-2 melanoma) [µM] | GI50 (MDA-MB-435) [µM] | GI50 (K-562 leukemia) [µM] | GI50 (HOP-92 NSCLC) [µM] |
| --- | --- | --- | --- | --- | --- | --- | --- | --- | --- | --- | --- | --- | --- | --- | --- | --- | --- | --- | --- |
| CCOC(=O)c1ccc2nc3n(c2c1)C(c1c(F)cccc1F)SC3 (centres undefined) | > 100 | > 100 | > 100 | > 100 | > 100 | 87 | > 100 | > 100 | > 100 | > 100 | > 100 |  |  |  |  |  |  |  |  |
| CCOP(=O)(OCC)C(Nc1ccc(Cl)cc1)c1ccc(F)cc1 (centres undefined) | 53.2 | > 100 | 43.4 | > 100 | 67.6 | 88 | 35.8 | 39.7 | 68.5 | 48.2 | 59.1 |  |  |  |  |  |  |  |  |
| O=C(CC(=O)N1N=C(c2ccccc2)C(N=Nc2ccc(S(=O)(=O)CCOS(=O)(=O)O)cc2)C1=O)Nc1ccc(Cl)cc1 (centres undefined) | > 100 | > 100 | > 100 | > 100 | > 100 | > 100 | > 100 | > 100 | > 100 | > 100 | > 100 |  |  |  |  |  |  |  |  |
| COc1cc2nc(-c3cccs3)nc(Nc3ccccc3C(=O)NN)c2cc1OC | > 100 | > 100 | > 100 | > 100 | > 100 | > 100 | > 100 | > 100 | > 100 | > 100 | > 100 |  |  |  |  |  |  |  |  |
| CCCN=C1NC(C)=CSC(Nc2ccccc2)=C1C#N | > 100 | > 100 | > 100 |  | > 100 |  | > 100 | > 100 | > 100 | > 100 |  |  |  |  |  |  |  |  |  |
| Cc1cc2nc3c(C#N)c(C)c(CCCl)c(Cl)n3c2cc1C | 3.63 | 17.7 | 3.69 | 35.6 | 5.49 | 8.17 | 3.99 | 4.92 | 6.63 | 4.64 | 4.76 |  |  |  |  |  |  |  |  |
| O=C(CCCCCNC(=O)c1ccc(Cl)cc1)NO | 24.4 | 81.9 | 39 | > 100 | > 100 | 71.2 | 7.22 | 31.3 | > 100 |  | 11.1 |  |  |  |  |  |  |  |  |
| N#CCCN(CCCCN(CCC#N)C(=O)Nc1ccccc1)C(=O)Nc1ccccc1 | > 100 | > 100 | > 100 | > 100 | > 100 | > 100 | > 100 | > 100 | > 100 | > 100 |  |  |  |  |  |  |  |  |  |
| COc1ccc(NC(=O)CSC(=O)c2ccccc2)c(SCCSSCCSc2cc(OC)ccc2NC(=O)CSC(=O)c2ccccc2)c1 | > 100 | > 100 | > 100 | > 100 | > 100 | > 100 | > 100 | > 100 |  | > 100 | > 100 |  |  |  |  |  |  |  |  |
| CCN(CC)/N=C\c1c2ccccc2cc2ccccc12 | > 100 | > 100 | > 100 | > 100 | 77.1 |  | 61.9 | > 100 | > 100 |  | 61.1 |  |  |  |  |  |  |  |  |
| COCC(C#N)NC1CC(OC2CC(O)(C(=O)CO)Cc3c(O)c4c(c(O)c32)C(=O)c2c(OC)cccc2C4=O)OC(C)C1O (centres undefined) | 2.02 |  | 1.77 | 4.62 | 1.15 | 0.117 | 0.316 | 0.346 | 1.11 | 0.261 | 5 |  |  |  |  |  |  |  |  |
| CCOC(=O)Cc1[nH]c(C(=O)c2ccccc2)cc1C(=O)c1ccccc1 | > 100 | 66.8 | > 10 | > 100 | > 10 | 65.8 | > 100 | 66 | > 10 | 51.7 |  |  |  |  |  |  |  |  |  |
| Cc1nc(N)c(N2CCN(S(=O)(=O)N(Cc3ccccc3)Cc3ccccc3)CC2)c(=O)[nH]1 | 80.7 | > 100 | > 100 | > 100 | > 100 | > 100 | > 100 | 88.8 | > 100 | 83.5 |  |  |  |  |  |  |  |  |  |
| N=c1ncn(C/C=C/c2ccccc2)c2nc[nH]c12 | > 100 | > 100 | > 100 | > 100 | > 100 |  | > 100 | > 100 | > 100 | > 100 | > 100 |  |  |  |  |  |  |  |  |
| Cc1ccc2sc3c(NCCCN)nc4ccccc4c3c(=O)c2c1 | 3.13 |  |  | 4.09 | 5.5 | 3.66 | 4.66 | 3.46 | 4.51 |  | 4.65 | 1.68 | 1.89 | 2.41 | 1.84 | 2.18 | 1.82 | 2 | 1.44 |
